Consider two compounds from US11679123B2, “N-acylated hyaluronic acid for hyperuricemia and gouty arthritis” (Queen's University at Kingston, priority 2018, dated 2023).

Assay [1] has as its system hyperuricemic mice. In words: Serum UA in OXO- and yeast extract-induced hyperuricemic mice. Type of assay: in vivo, Balb/C mice. The conditions noted are these: 20 mg/kg AL oral, P<0.01. The method, then: Male Balb/C mice (n=50, 8 weeks: 18-22 g), purchased from Yisi Experimental Animal Technology Company Ltd, Jilin, China (SCXK (Ji)-2016-0003). These mice were housed in plastic cages and maintained on a 12-h light/12-h dark cycle (lights on 7:00-19:00 h) under standard laboratory conditions of 55% relative humidity and 23±1° C. They were given standard feed and tap water ad libitum. All experimental procedures were approved by the Animal Ethics Committee of Jilin University (Reference NO. 201605).
Due to the presence of uricase in mice, a hyperuricemic mouse model was established by using uricase inhibitor and large amounts of purine. Mice were randomly divided into five groups (n=10), including the control group (NC), model group (MC), 20 mg/kg of AL (Shimao Tianjie Pharmaceutical Co. Ltd, Jiangsu, China) group, 10 μg BHA group (10BHA) and 50 μg BHA group (50BHA). Oral administration of AL and intraperitoneal injection of BHA were administered according to the required dose, and all mice were gavage fed 20 g/kg yeast extract powder 12 h prior to the administration of AL and BHA except for NC mice for 8 days. […]
(§1) The serum UA concentrations and XO levels in the serum and liver were determined with a standard diagnostic kit (MAK077, MAK078 Sigma, USA) according to the manufacturer's instructions.

Assay [2] deals with xanthine oxidase (XO). In words: XO levels in serum and liver of hyperuricemic mice. The conditions noted are these: AL 20 mg/kg; P<0.05. The format is in vivo, Balb/C mice. The procedure: (§2) Due to the presence of uricase in mice, a hyperuricemic mouse model was established by using uricase inhibitor and large amounts of purine. Mice were randomly divided into five groups (n=10), including the control group (NC), model group (MC), 20 mg/kg of AL (Shimao Tianjie Pharmaceutical Co. Ltd, Jiangsu, China) group, 10 μg BHA group (10BHA) and 50 μg BHA group (50BHA). Oral administration of AL and intraperitoneal injection of BHA were administered according to the required dose, and all mice were gavage fed 20 g/kg yeast extract powder 12 h prior to the administration of AL and BHA except for NC mice for 8 days. From the 6th to 8th day, 1-h prior to AL and BHA administration, 300 mg/kg of OXO (Sigma, USA) was intraperitoneally injected to all of the mice except those in the control group. At 1 h after the final drug administration, blood was sampled from caudal veins of the mice, serum was separated and their livers were quickly collected (FIG. 3A, E). All samples were stored at −80° C. until assay measurements were performed.
as §1

In assay [3] the test system is factors related to oxidative stress. The assay can be described thus: Factors related to oxidative stress in serum and liver of hyperuricemia mice (ELISA). Type of assay: in vivo, Balb/C mice. The procedure: as §2
(§3) The levels of reactive oxygen species (ROS, 43355), malondialdehyde (MDA, 43124) glutathione peroxidase (GSH-Px, 43390), superoxide dismutase (SOD, 43125), catalase (CAT, 43356), creatinine (Cr, 43353) and blood urea nitrogen (BUN, 43352) in the serum and livers of mice were determined using ELISA Kits (Yuanye Bio-Technology Co. Ltd, Shanghai, China) according to the manufacturer's instructions.

Assay [4] has as its system creatinine (Cr) and blood urea nitrogen (BUN). In words: Cr and urea nitrogen in serum and liver of hyperuricemic mice (renal function). The format is in vivo, Balb/C mice. The settings on record: AL. The procedure:
as §2, §3

Assay [5] relates to rats with MSU-induced gouty arthritis. The assay can be described thus: Dose screening on MSU crystals-induced acute gout in rats: ankle swelling ratio. The format is in vivo, Wistar rats. The settings on record: n=6, COL 0.3 mg/kg, at 4 h only, P<0.05. The method, then: 48 male Wistar rats (8 weeks: 180-200 g), purchased from Yisi Experimental Animal Technology Company Ltd, Jilin, China (SCXK (Ji)-2016-0003), were housed in plastic cages and maintained on a 12-h light/12-h dark cycle (lights on 7:00-19:00 h) under standard laboratory conditions of 55% relative humidity and 23° C.±1° C. They were given standard chow and tap water ad libitum. All experimental procedures were approved by the Animal Ethics Committee of Jilin University (Reference NO. 201605).
An experimental model of MSU-induced gouty arthritis was used in order to evaluate the anti-inflammatory activities of BHA similar as previous studies with some modifications. Rats were randomly divided into eight groups (n=6), including control group (NC), model group (MC), 0.3 mg/kg colchicine group (COL), 5 μg BHA group (5BHA), 10 μg BHA group (10BHA), 25 μg BHA group (25BHA), 50 μg BHA group (50BHA), 100 μg BHA group (100BHA). MSU crystals were suspended in 0.9% sterile saline (30 mg/mL) prior to use. Rats in the colchicine group were orally administered colchicine (0.3 mg/kg) for 8 days. At day 6, MSU solution (100 μL of 30 mg/mL) was intra-articular injected at the right ankles of all rats except the NC group m which were injected with saline solution. 5BHA, 10BHA, 25BHA, 50BHA and 100BHA groups received intra-articular injections of 5, 10, 25, 50, or 100 μg BHA along with MSU solution (100 μL of 30 mg/mL MSU solution contains 5, 10, 25, 50 or 100 μg BHA) were administered according to the stated BHA doses.
The right ankle circumference of all rats at 0, 4, 12, 24 and 48 h after MSU injection was measured. The swelling ratio (%) was used for evaluating the gouty arthritis and calculated according to the change of the circumference following the formula: Swelling ratio (%)=(Ct−C0)/C0. Wherein, Ct represented the circumference at t hour and C0 represented the circumference at 0 hour.

Assay [6] deals with rats with MSU-induced acute gout. The assay can be described thus: MSU crystal-induced acute gout in rats: ankle swelling ratio. Type of assay: in vivo, Wistar rats. The settings on record: COL 0.3 mg/kg; at 12 h; P<0.05. The method, then:
Male Wistar rats (n=50, 8 weeks: 160-200 g) were purchased from Liaoning Changsheng Biotechnology Company Ltd, Jilin, China (SCXK (Liao)-2015-0001). These rats were housed in plastic cages and maintained on a 12-h light/12-h dark cycle (lights on 7:00-19:00 h) under standard laboratory conditions of 55% relative humidity and at 23° C.±1° C. They were given standard chow (Liaoning Changsheng Biotechnology Company Ltd, Jilin, China) and tap water ad libitum. All experimental procedures were approved by the Animal Ethics Committee of Jilin University (Reference NO. 201605).
(§4) An experimental model of MSU-induced gouty arthritis was used in order to evaluate the anti-inflammatory activities of BHA. Rats were randomly divided into five groups (n=10), include a control group (NC), a model group (MC), a 0.3 mg/kg colchicine group (COL), a 10 μg BHA group (10BHA) and a 50 μg BHA group (50BHA). MSU crystals were suspended in 0.9% sterile saline (30 mg/mL) prior to use. The colchicine group rats were orally administrated colchicine (0.3 mg/kg) for 8 days, and all rats except for the control group were injected with 3 mg of MSU (Sigma, USA) at the 6th day into the right ankle synovial space 1 h after gavage feeding. Meanwhile a turbid sample of MSU mixed with 100 μg of BHA or 500 μg of BHA per mL of solution for 10BHA rats or 50BHA rats. At the 8th day, 1 h after the administration of the final agents, blood was sampled from the caudal veins of the rats and the right ankle joints of the rats were collected and fixed in 4% paraformaldehyde. Serum was separated and stored at −80° C. prior to analysis (FIG. 2A, E).
The right ankle circumferences of all rats at 0, 4, 12, 24 and 48 h after MSU injection were measured. The swelling ratio (%) was used to evaluate the gouty arthritis and calculated according to the change of the circumference via the formula: Swelling ratio (%)=(Ct−C0)/C0, wherein, Ct represented the circumference at time t (in h) and C0 represented the circumference at 0 h.

The subject of assay [7] is inflammatory cell infiltration in the synovium. In words: Histopathological assessment of ankle joint synovium (H&E) in MSU crystal-injected rats. Type of assay: in vivo, Wistar rats. The settings on record: COL 0.3 mg/kg; MSU crystal-injected rats; H&E. The method, then:
In one study, a histopathological assessment was conducted of synovium in ankle joints of rats after H&E staining. The right ankles of […] were excised and fixed in 4% paraformaldehyde, and subsequently decalcified using 10% ethylenediaminetetraacetic acid. They were then dehydrated via processing in alcohol/xylene mixtures with different proportions and concentrations. The histological sections were stained with hematoxylin and eosin. The histopathological changes of the joint synovium were assessed for the degree of inflammatory cell infiltrate, by an experienced histopathologist. Microscopy at magnifications of 40×, 100×, 200× and 400× were investigated for typical areas for each of the five groups.
The right ankles of rats were collected and fixed in 4% paraformaldehyde, and subsequently decalcified using 10% ethylenediaminetetraacetic acid. They were then dehydrated by processing in alcohol/xylene mixtures with different proportions and concentrations. The histological sections were later stained with hematoxylin and eosin for observation under an optical microscope (200×). The histopathological changes were analyzed with regard to deformaties of the joint synovium and infiltration by inflammatory cells into the ankle.

In assay [8] the test system is inflammation factors. The assay can be described thus: Serum inflammation factors by ELISA in rats with MSU-induced acute gout. Type of assay: in vivo, Wistar rats. The procedure: as §4
The serum levels of interleukin-1α (IL-1α, 41734), IL-1β (43360), interleukin-6 (IL-6, 41731), interleukin-8 (IL-8, 41716), IL-10 (41736), interleukin-16 (IL-16, 41628), C—X—C motif chemokine 10 (CXCL10, 41570), monocyte chemoattractant protein 1 (MCP-1, 41640), macrophage inflammatory protein 1α (MIP-1α, 41645), interferon gamma (IFN-γ, 41739), TNF-α (41721), tumor necrosis factor-β (TNF-β, 41673), nuclear factor κ-light-chain-enhancer of activated B cells (NF-κB, 43358), 6-keto-prostaglandin F-1α (6-Keto-PGF1α, 41809) and prostaglandin E2 (PGE2, 41609) in rats were determined by the ELISA method using related Elisa Kits (Yuanye Bio-Technology Co. Ltd, Shanghai, China) according to the manufacturer's instructions.

The mark [9] stands for this setting: hyperuricemia mice, AL 20 mg/kg oral, mean ± S.D., n=10.
Where [10] appears, read: serum, MSU-induced acute gout rats, COL 0.3 mg/kg oral 8 days, mean ± S.D., n=10.

As to `Oc1ncnc2[nH]ncc12` [AL, allopurinol, reference compound], the “suppression of serum UA level” value in assay [1] was determined as 46.38%. In addition, the “reduction of XO levels in the serum compared to untreated mice” value in assay [2] is 23.76%. In assay [3] (AL, hyperuricemic mice, P<0.05), the “suppression of MDA level in the liver” value is reported as 13.47%, the “suppression of MDA level in the serum” value is on record as 6.66%, the “suppression of ROS level in the liver” value is given as 17.86% and the “suppression of ROS level in the serum” value is listed as 9.48%. Further, in assay [3] (setting [9]), the “Liver CAT” value was 12.9 ± 1.3 U/mg, the “Liver GSH-PX” value worked out at 66.1 ± 7.2 U/mg, the “Liver MDA” value came to 3.1 ± 0.2 nmol/mg and the “Liver ROS” value is listed as 63.2 ± 6.2 U/mg. In assay [3] (setting [9]), the “Liver SOD” value came to 48.5 ± 3.4 U/mg, the “Serum CAT” value was 41.6 ± 5.6 U/mL, the “Serum GSH-PX” value is reported as 231.8 ± 7.7 U/mL and the “Serum MDA” value is reported as 10.2 ± 0.5 nmol/mL. Moreover, in assay [3] (setting [9]), the “Serum ROS” value is 240.9 ± 23.9 U/mL and the “Serum SOD” value is 159.2 ± 8 U/mL. Also, the “lowering of Cr in the liver” value in assay [4] (P<0.01) is 15.28%. Moreover, in assay [4] (hyperuricemic mice, P<0.05), the “lowering of Cr in the serum” value was determined as 11.52% and the “lowering of urea nitrogen in the liver” value was determined as 25.25%.
For `COc1cc2c(c(OC)c1OC)-c1ccc(OC)c(=O)cc1[C@@H](NC(C)=O)CC2` [COL, colchicine, reference compound], in assay [5], the “swelling of the ankle compared to MSU treated group” value is “significantly suppressed swelling of the ankle”. Further, in assay [6], the “ankle swelling compared to the MSU treated group” value is “suppressed ankle swelling”. For the same compound, in assay [7], the “pathological changes (inflammatory cell infiltration) in synovium” value is “partially prevented the pathological changes”. Further, the “decrease of serum MCP-1 compared to rats injected with MSU” value in assay [8] (COL 0.3 mg/kg, P<0.05) was 9.93%. In assay [8] (setting [10]), this compound registered a 6-Keto-PGF1α of 266.3 ± 12.7, an IFN-γ of 88.2 ± 35 pg/mL, an IL-1α of 74.3 ± 12.6 pg/mL and an IL-1β of 19.1 ± 1.2 pg/mL. In assay [8] (setting [10]), the IL-6 came to 74.7 ± 7.9 pg/mL, the IL-8 is recorded as 222.7 ± 11.5 pg/mL, the IL-10 was 11.5 ± 0.7 pg/mL and the IL-16 worked out at 416.7 ± 16.1 pg/mL. In addition, in assay [8] (setting [10]), the IP-10 came out at 153.5 ± 20.3 pg/mL, the MCP-1 amounted to 311.5 ± 20.8 pg/mL, the MIP-1α came to 294.6 ± 21.5 pg/mL and the NF-κB is 494.6 ± 132. pg/mL. Moreover, in assay [8] (setting [10]), the PGE2 is reported as 207.7 ± 10^ pg/mL, the TNF-α is listed as 154.8 ± 8.5 pg/mL and the TNF-β is listed as 124.8 ± 10.5 pg/mL.
